According to patent publication US20260297080A1, “BICYCLIC COMPOUNDS AS CDK INHIBITORS” (BeOne Medicines I GmbH, priority 2022, published 2026):

How the values were obtained:
[1] = biological target: CDK1/Cyclin B1 (Homo sapiens, UniProt P06493); assay: CDK1/Cyclin B1 Biochemical Assay (TR-FRET), 0.015 mM ATP; conditions: 0.15 μM Rb (Ser780)-biotin substrate, pH7.0, 60 min preincubation, 120 min reaction, room temperature
Summary of the method: (§1)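 Inhibitor concentrations up to 10 μM were preincubated with each cyclin–kinase complex for 60 minutes before ATP and biotinylated Rb (Ser780) substrate (0.15 μM) were added. After 120 minutes at room temperature, phosphorylation was quantified by HTRF and IC50 values were fitted with a four-parameter logistic equation.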

[2] = biological target: CDK2/Cyclin E1 (Homo sapiens, UniProt P24941); assay: CDK2/Cyclin E1 Biochemical Assay (TR-FRET), 0.060 mM ATP; conditions: 0.15 μM Rb (Ser780)-biotin substrate, pH7.0, 60 min preincubation, 120 min reaction, room temperature
Summary of the method: as §1

Sequence of CDK1/Cyclin B1 (P06493 whole entry): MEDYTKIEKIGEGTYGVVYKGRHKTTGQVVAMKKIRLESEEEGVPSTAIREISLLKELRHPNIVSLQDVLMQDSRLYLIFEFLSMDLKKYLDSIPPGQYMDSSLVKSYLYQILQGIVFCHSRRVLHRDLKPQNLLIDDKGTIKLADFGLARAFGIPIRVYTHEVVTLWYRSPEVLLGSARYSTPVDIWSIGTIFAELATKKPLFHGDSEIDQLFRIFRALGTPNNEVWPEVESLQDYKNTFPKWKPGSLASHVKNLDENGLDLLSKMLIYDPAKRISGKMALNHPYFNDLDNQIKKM
Sequence of CDK1/Cyclin B1 (P14635 whole entry partner): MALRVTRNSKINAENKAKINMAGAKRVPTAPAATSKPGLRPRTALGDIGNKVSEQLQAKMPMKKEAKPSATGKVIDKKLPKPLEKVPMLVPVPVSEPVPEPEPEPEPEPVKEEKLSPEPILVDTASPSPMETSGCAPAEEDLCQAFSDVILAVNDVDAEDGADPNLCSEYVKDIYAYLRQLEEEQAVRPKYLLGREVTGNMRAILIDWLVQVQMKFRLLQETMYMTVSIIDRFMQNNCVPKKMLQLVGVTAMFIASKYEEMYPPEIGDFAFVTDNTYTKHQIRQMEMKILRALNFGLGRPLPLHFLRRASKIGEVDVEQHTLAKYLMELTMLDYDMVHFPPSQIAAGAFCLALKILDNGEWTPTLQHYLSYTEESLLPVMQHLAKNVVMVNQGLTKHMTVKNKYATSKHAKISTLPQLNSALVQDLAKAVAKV

Compound	IC50 [1] [nM]	IC50 [2] [nM]
CC(C)NC(=O)O[C@H]1CC[C@@H](c2cc(Nc3cc4c(cc3F)S(=O)(=O)NC4(C)C)n[nH]2)C1 (relative stereo) [Example 14, cis-3-(3-((6-fluoro-3,3-dimethyl-1,1-dioxido-2,3-dihydrobenzo[d]isothiazol-5-yl)amino)-1H-pyrazol-5-yl)cyclopentyl isopropylcarbamate]	1090	30
CC(C)NC(=O)O[C@H]1CC[C@@H](c2cc(Nc3cc4c(cc3F)CNS4(=O)=O)n[nH]2)C1 (single isomer, unassigned) [Example 1a, cis-3-(3-((5-fluoro-1,1-dioxido-2,3-dihydrobenzo[d]isothiazol-6-yl)amino)-1H-pyrazol-5-yl)cyclopentyl isopropylcarbamate]	860	22
CC(C)NC(=O)O[C@H]1CC[C@@H](c2cc(Nc3ccc4c(c3)CS(=O)(=O)N4C3COC3)n[nH]2)C1 (relative stereo) [Example 209, cis-3-(3-((1-(oxetan-3-yl)-2,2-dioxido-1,3-dihydrobenzo[c]isothiazol-5-yl)amino)-1H-pyrazol-5-yl)cyclopentyl isopropylcarbamate]	37	5.4
CC(C)NC(=O)O[C@H]1C[C@@H](c2cc(Nc3cc4c(cc3F)S(=O)(=O)NC4)n[nH]2)C1 [Example 397, (1s,3s)-3-(3-((6-fluoro-1,1-dioxido-2,3-dihydrobenzo[d]isothiazol-5-yl)amino)-1H-pyrazol-5-yl)cyclobutyl isopropylcarbamate]	2020	103
CN1c2ccc(Nc3cc([C@@H]4CC[C@H](OC(=O)NC5(C)CC5)C4)[nH]n3)c(F)c2CS1(=O)=O (relative stereo) [Example 257, cis-3-(3-((4-fluoro-1-methyl-2,2-dioxido-1,3-dihydrobenzo[c]isothiazol-5-yl)amino)-1H-pyrazol-5-yl)cyclopentyl(1-methylcyclopropyl)carbamate]	33	1.5
C[C@H]1[C@H](O)CN1C(=O)O[C@H]1CC[C@@H](c2cc(Nc3ccc4c(c3)CS(=O)(=O)N4C)n[nH]2)C1 (relative stereo) [Example 354, cis-3-(3-((1-methyl-2,2-dioxido-1,3-dihydrobenzo[c]isothiazol-5-yl)amino)-1H-pyrazol-5-yl)cyclopentyl(2S,3R)-3-hydroxy-2-methylazetidine-1-carboxylate]	85	11
C[C@@H](CO)NC(=O)O[C@H]1CC[C@@H](c2cc(Nc3ccc4c(c3F)CN(C)S4(=O)=O)n[nH]2)C1 (relative stereo) [Example 351, cis-3-(3-((4-fluoro-2-methyl-1,1-dioxido-2,3-dihydrobenzo[d]isothiazol-5-yl)amino)-1H-pyrazol-5-yl)cyclopentyl((S)-1-hydroxypropan-2-yl)carbamate]	658	40
CC1(NC(=O)O[C@H]2CC[C@@H](c3cc(Nc4ccc5c(c4F)CS(=O)(=O)N5C4COC4)n[nH]3)C2)CC1 (relative stereo) [Example 262, cis-3-(3-((4-fluoro-1-(oxetan-3-yl)-2,2-dioxido-1,3-dihydrobenzo[c]isothiazol-5-yl)amino)-1H-pyrazol-5-yl)cyclopentyl(1-methylcyclopropyl)carbamate]	33	1.3
CC1(NC(=O)O[C@H]2C[C@@H](c3cc(Nc4cc5c(cc4F)S(=O)(=O)NC5)n[nH]3)C2)CC1 [Example 411, (1s,3s)-3-(3-((6-fluoro-1,1-dioxido-2,3-dihydrobenzo[d]isothiazol-5-yl)amino)-1H-pyrazol-5-yl)cyclobutyl(1-methylcyclopropyl)carbamate]	386	9.4
CC1(O)CCN(C(=O)O[C@H]2CC[C@@H](c3cc(Nc4ccc5c(c4)CNS5(=O)=O)n[nH]3)C2)C1 (relative stereo) [Example 176, cis-3-(3-((1,1-dioxido-2,3-dihydrobenzo[d]isothiazol-5-yl)amino)-1H-pyrazol-5-yl)cyclopentyl 3-hydroxy-3-methylpyrrolidine-1-carboxylate]	230	8
CC(C)NC(=O)O[C@H]1CC[C@@H](c2cc(Nc3cc4c(cc3F)CNS4(=O)=O)n[nH]2)C1 (single isomer, unassigned) [Example 1b, cis-3-(3-((5-fluoro-1,1-dioxido-2,3-dihydrobenzo[d]isothiazol-6-yl)amino)-1H-pyrazol-5-yl)cyclopentyl isopropylcarbamate]	259	18
CC(C)NC(=O)O[C@H]1CC[C@@H](c2cc(Nc3cc4c(cc3F)S(=O)(=O)N(CCO)C4)n[nH]2)C1 (relative stereo) [Example 47, cis-3-(3-((6-fluoro-2-(2-hydroxyethyl)-1,1-dioxido-2,3-dihydrobenzo[d]isothiazol-5-yl)amino)-1H-pyrazol-5-yl)cyclopentyl isopropylcarbamate]	7380	158
O=C(NCC1CC1)O[C@H]1CC[C@@H](c2cc(Nc3ccc4c(c3F)CNS4(=O)=O)n[nH]2)C1 (relative stereo) [Example 414, cis-3-(3-((4-fluoro-1,1-dioxido-2,3-dihydrobenzo[d]isothiazol-5-yl)amino)-1H-pyrazol-5-yl)cyclopentyl(cyclopropylmethyl)carbamate]	232	7.3
COCC(C)NC(=O)O[C@H]1CC[C@@H](c2cc(Nc3ccc4c(c3)CS(=O)(=O)N4)n[nH]2)C1 (relative stereo) [Example 197, cis-3-(3-((2,2-dioxido-1,3-dihydrobenzo[c]isothiazol-5-yl)amino)-1H-pyrazol-5-yl)cyclopentyl(1-methoxypropan-2-yl)carbamate]	119	12
C[C@H]1[C@H](O)CN1C(=O)O[C@H]1CC[C@@H](c2cc(Nc3ccc4c(c3F)CN(C)S4(=O)=O)n[nH]2)C1 (relative stereo) [Example 170, cis-3-(3-((4-fluoro-2-methyl-1,1-dioxido-2,3-dihydrobenzo[d]isothiazol-5-yl)amino)-1H-pyrazol-5-yl)cyclopentyl(2S,3R)-3-hydroxy-2-methylazetidine-1-carboxylate]	407	23
COCC(C)NC(=O)O[C@H]1CC[C@@H](c2cc(Nc3ccc4c(c3F)CS(=O)(=O)N4C3CC3)n[nH]2)C1 (relative stereo) [Example 367, cis-3-(3-((1-cyclopropyl-4-fluoro-2,2-dioxido-1,3-dihydrobenzo[c]isothiazol-5-yl)amino)-1H-pyrazol-5-yl)cyclopentyl(1-methoxypropan-2-yl)carbamate]	117	1.7
CCN1Cc2c(ccc(Nc3cc([C@@H]4CC[C@H](OC(=O)NC(C)C)C4)[nH]n3)c2F)S1(=O)=O (relative stereo) [Example 60, cis-3-(3-((2-ethyl-4-fluoro-1,1-dioxido-2,3-dihydrobenzo[d]isothiazol-5-yl)amino)-1H-pyrazol-5-yl)cyclopentyl isopropylcarbamate]	497	9.2

The next lines start with the values.

IC50 [1] [nM]	IC50 [2] [nM]	Compound
131	1.8	CN1c2ccc(Nc3cc([C@@H]4CC[C@H](OC(=O)NC5(C)CCOC5)C4)[nH]n3)c(F)c2CS1(=O)=O (single isomer, unassigned) [Example 349a, cis-3-(3-((4-fluoro-1-methyl-2,2-dioxido-1,3-dihydrobenzo[c]isothiazol-5-yl)amino)-1H-pyrazol-5-yl)cyclopentyl(3-methyltetrahydrofuran-3-yl)carbamate]
114	1.3	CC(C)(C)NC(=O)O[C@H]1CC[C@@H](c2cc(Nc3cc4c(cc3F)S(=O)(=O)NC4)n[nH]2)C1 (single isomer, unassigned) [Example 395b]
45	1.7	CC[C@H](C)NC(=O)O[C@@H]1CC[C@H](c2cc(Nc3ccc4c(c3F)CS(=O)(=O)N4)n[nH]2)C1 (single isomer, unassigned) [Example 383a]
106	2.1	CC(C)NC(=O)O[C@H]1CC[C@@H](c2cc(Nc3ccc4c(c3F)C(C)NS4(=O)=O)n[nH]2)C1 (single isomer, unassigned) [Example 51c, cis-3-(3-((4-fluoro-3-methyl-1,1-dioxido-2,3-dihydrobenzo[d]isothiazol-5-yl)amino)-1H-pyrazol-5-yl)cyclopentyl isopropylcarbamate]
28	3.6	CC(C)NC(=O)O[C@H]1CC[C@@H](c2cc(Nc3ccc4c(c3)CS(=O)(=O)N4CCO)n[nH]2)C1 (single isomer, unassigned) [Example 219b, cis-3-(3-((1-(2-hydroxyethyl)-2,2-dioxido-1,3-dihydrobenzo[c]isothiazol-5-yl)amino)-1H-pyrazol-5-yl)cyclopentyl isopropylcarbamate]
15	0.6	CC(C)NC(=O)O[C@H]1CC[C@@H](c2cc(Nc3ccc4c(c3)C(C)NS4(=O)=O)n[nH]2)C1 (single isomer, unassigned) [Example 321b, cis-3-(3-((3-methyl-1,1-dioxido-2,3-dihydrobenzo[d]isothiazol-5-yl)amino)-1H-pyrazol-5-yl)cyclopentyl isopropylcarbamate]
56	1	CC1NS(=O)(=O)c2ccc(Nc3cc([C@@H]4CC[C@H](OC(=O)NC5(C)CC5)C4)[nH]n3)c(F)c21 (single isomer, unassigned) [Example 52d, cis-3-(3-((4-fluoro-3-methyl-1,1-dioxido-2,3-dihydrobenzo[d]isothiazol-5-yl)amino)-1H-pyrazol-5-yl)cyclopentyl(1-methylcyclopropyl)carbamate]
